Source: the supplement of paper PMC11061612

Experiments:
[1] = system: LK-2 (Squamous Cell Lung Carcinoma); test: Bliss excess, mean over the matrix (fraction); higher = more synergy
In short: (§1)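 Cell lines grown in DMEM/F12 or RPMI with 10% FBS were plated in 1536-well plates and held 24 hours at 37°C, 5% CO2 before 72 hours of exposure to two-drug dose matrices, with DMSO typically at 0.2%. CellTiter-Glo 2.0 luminescence gave viability, which was converted to inhibition. Vehicle wells were set to 0 and blank wells to 1. Combination Emax is the second-highest inhibition in the matrix, and Bliss excess is the observed combination effect minus the expected EA + EB − EA·EB, where EA and EB are the single-agent effects.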

[2] = system: OPM-2 (Plasma Cell Myeloma); test: as above
In short: as §1

[3] = system: OVMIU (Ovarian Carcinoma); test: as above
In short: as §1

SK-MEL-2 (Melanoma) [4] = test: as above
In short: as §1

[5] = system: CAL-62 (Thyroid Gland Carcinoma); test: combination Emax (second highest fraction inhibited in the dose matrix, 72 h); higher = more inhibition; extreme values may be limits of the assay
In short: as §1

[6] = system: HSC-39 (Gastric Carcinoma); test: as above
In short: as §1

IST-MES1 (Mesothelioma) = test: as above
In short: as §1

[7] = system: LK-2 (Squamous Cell Lung Carcinoma); test: as above
In short: as §1

[8] = system: MFE-280 (Endometrial Carcinoma); test: as above
In short: as §1

NB12 (Neuroblastoma) = test: as above
In short: as §1

[9] = system: NCI-H2342 (Lung Adenocarcinoma); test: as above
In short: as §1

[10] = system: OVMIU (Ovarian Carcinoma); test: as above
In short: as §1

[11] = system: PANC-03-27 (Pancreatic Carcinoma); test: as above
In short: as §1

[12] = system: RCM-1 (Colorectal Carcinoma); test: as above
In short: as §1

[13] = system: RKN (Other Solid Carcinomas); test: as above
In short: as §1

SF539 (Glioblastoma) = test: as above
In short: as §1

[14] = system: SHP-77 (Small Cell Lung Carcinoma); test: as above
In short: as §1

SK-MEL-2 (Melanoma) [15] = test: as above
In short: as §1

[16] = system: SK-PN-DW (Other Solid Carcinomas); test: as above
In short: as §1

[17] = system: TE-8 (Esophageal Squamous Cell Carcinoma); test: as above
In short: as §1
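For Bliss excess, mean over the matrix in this document: after 72 h of two-drug dosing.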

Molecule `CC1(C)CCC(CN2CCN(c3ccc(C(=O)NS(=O)(=O)c4ccc(NCC5CCOCC5)c([N+](=O)[O-])c4)c(Oc4cnc5[nH]ccc5c4)c3)CC2)=C(c2ccc(Cl)cc2)C1` [Venetoclax] + CS(=O)(=O)CCNCc1ccc(-c2ccc3ncnc(Nc4ccc(OCc5cccc(F)c5)c(Cl)c4)c3c2)o1 [Lapatinib] (first compound max 1 µM, 7x7, partner max 10 µM) has a Bliss excess [1] of 0.0165, a Bliss excess [2] of 0.0306 and a Bliss excess [3] of -0.0328. The Bliss excess (SK-MEL-2 (Melanoma) [4]) was -0.0207, the “combination Emax” value [5] was 0.114 and the “combination Emax” value [6] was 0.915. The “combination Emax” value (IST-MES1 (Mesothelioma)) was 0.313, the “combination Emax” value [7] was 0.31 and the “combination Emax” value [8] was 0.255. For the same molecule, the “combination Emax” value (NB12 (Neuroblastoma)) was 0.915, the “combination Emax” value [9] was 0.183 and the “combination Emax” value [10] was 0.607. For the same molecule, the “combination Emax” value [11] was 0.5, the “combination Emax” value [12] was 0.42 and the “combination Emax” value [13] was 0.171. The “combination Emax” value (SF539 (Glioblastoma)) was 0.309, the “combination Emax” value [14] was 0.344 and the “combination Emax” value (SK-MEL-2 (Melanoma) [15]) was 0.174. For the same molecule, the “combination Emax” value [16] was 0.455 and the “combination Emax” value [17] was 0.263.
